Reference: ChEMBL document CHEMBL1201862, “PubChem BioAssay data set” (2004)
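All cell lines were grown in 96-well plates and treated with compound for 48 hours. GI50: concentration for 50% inhibition of growth.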 The source made the active and inactive calls. No stated cut-off is given here; in the data, active = GI50 up to about 1.1 µM and inactive = higher.

Key:
Test in all cases: NCI anticancer screen, dose series, 48 h
HCT-15 = system: HCT-15
CCRF-CEM = system: CCRF-CEM
786-0 = system: 786-0
SK-MEL-2 = system: SK-MEL-2
DMS-114 = system: DMS-114
SN12C = system: SN12C
M19-MEL = system: M19-MEL
SNB-78 = system: SNB-78
DLD-1 = system: DLD-1
SF-268 = system: SF-268
A498 = system: A498
OVCAR-8 = system: OVCAR-8
UO-31 = system: UO-31
UACC-257 = system: UACC-257
HCC 2998 = system: HCC 2998
A549 = system: A549
HL-60 = system: HL-60
CAKI-1 = system: CAKI-1
SK-MEL-28 = system: SK-MEL-28
SNB-19 = system: SNB-19
SK-OV-3 = system: SK-OV-3
SW-620 = system: SW-620
NCI-H226 = system: NCI-H226
OVCAR-3 = system: OVCAR-3
HT-29 = system: HT-29
NCI-H460 = system: NCI-H460
M14 = system: M14
KM-20L2 = system: KM-20L2
IGROV-1 = system: IGROV-1
MOLT-4 = system: MOLT-4
SNB-75 = system: SNB-75
Malme-3M = system: Malme-3M
UACC-62 = system: UACC-62
XF498 = system: XF498
SF-539 = system: SF-539
RXF 631 = system: RXF 631
SK-MEL-5 = system: SK-MEL-5
NCI-H23 = system: NCI-H23
U-251 = system: U-251
COLO 205 = system: COLO 205
K562 = system: K562
KM12 = system: KM12
TK-10 = system: TK-10
SF-295 = system: SF-295
HOP-62 = system: HOP-62
EKVX = system: EKVX
LXFL 529 = system: LXFL 529
DMS-273 = system: DMS-273
LOX IMVI = system: LOX IMVI
RXF 393 = system: RXF 393
NCI-H522 = system: NCI-H522
RPMI-8226 = system: RPMI-8226
OVCAR-5 = system: OVCAR-5
ACHN = system: ACHN
OVCAR-4 = system: OVCAR-4
HCT-116 = system: HCT-116
SR = system: SR
HOP-18 = system: HOP-18
HOP-92 = system: HOP-92

For `O=C(O)c1ccc(C2C3C=CC(C3)C2[N+](=O)[O-])cc1` (stereo not drawn), the GI50 (HCT-15) was over 100 µM, the GI50 (CCRF-CEM) was > 100 µM (inactive) and the GI50 (786-0) was > 100 µM (inactive). For the same compound, the GI50 (SK-MEL-2) was > 100 µM (inactive), the GI50 (DMS-114) was > 100 µM (inactive) and the GI50 (SN12C) was > 100 µM (inactive). For the same compound, the GI50 (M19-MEL) was > 100 µM (inactive), the GI50 (SNB-78) was > 100 µM (inactive) and the GI50 (DLD-1) was > 100 µM (inactive). The GI50 (SF-268) was > 100 µM (inactive), the GI50 (A498) was > 100 µM (inactive) and the GI50 (OVCAR-8) was > 100 µM (inactive). For the same compound, the GI50 (UO-31) was > 100 µM (inactive), the GI50 (UACC-257) was > 100 µM (inactive) and the GI50 (HCC 2998) was > 100 µM (inactive). For the same compound, the GI50 (A549) was > 100 µM (inactive), the GI50 (HL-60) was > 100 µM (inactive) and the GI50 (CAKI-1) was > 100 µM (inactive). The GI50 (SK-MEL-28) was > 100 µM (inactive), the GI50 (SNB-19) was > 100 µM (inactive) and the GI50 (SK-OV-3) was > 100 µM (inactive). The GI50 (SW-620) was > 100 µM (inactive), the GI50 (NCI-H226) was > 100 µM (inactive) and the GI50 (OVCAR-3) was > 100 µM (inactive). The GI50 (HT-29) was > 100 µM (inactive), the GI50 (NCI-H460) was > 100 µM (inactive) and the GI50 (M14) was > 100 µM (inactive). For the same compound, the GI50 (KM-20L2) was > 100 µM (inactive), the GI50 (IGROV-1) was > 100 µM (inactive) and the GI50 (MOLT-4) was > 100 µM (inactive). The GI50 (SNB-75) was 91.2 µM (inactive), the GI50 (Malme-3M) was > 100 µM (inactive) and the GI50 (UACC-62) was > 100 µM (inactive). For the same compound, the GI50 (XF498) was > 100 µM (inactive), the GI50 (SF-539) was > 100 µM (inactive) and the GI50 (RXF 631) was > 100 µM (inactive). The GI50 (SK-MEL-5) was > 100 µM (inactive), the GI50 (NCI-H23) was > 100 µM (inactive) and the GI50 (U-251) was > 100 µM (inactive). For the same compound, the GI50 (COLO 205) was > 100 µM (inactive), the GI50 (K562) was > 100 µM (inactive) and the GI50 (KM12) was > 100 µM (inactive). For the same compound, the GI50 (TK-10) was > 100 µM (inactive), the GI50 (SF-295) was > 100 µM (inactive) and the GI50 (HOP-62) was > 100 µM (inactive). The GI50 (EKVX) was > 100 µM (inactive), the GI50 (LXFL 529) was > 100 µM (inactive) and the GI50 (DMS-273) was > 100 µM (inactive). For the same compound, the GI50 (LOX IMVI) was > 100 µM (inactive), the GI50 (RXF 393) was > 100 µM (inactive) and the GI50 (NCI-H522) was > 100 µM (inactive). For the same compound, the GI50 (RPMI-8226) was > 100 µM (inactive).
For `CC(C)(CN1CCCCC1)C(=O)CC(SCCN)c1ccc(Cl)cc1` (stereo not drawn), the GI50 (OVCAR-5) was 3.66 µM (inactive), the GI50 (HCT-15) was 1.63 µM and the GI50 (CCRF-CEM) was 1.55 µM (inactive). The GI50 (786-0) was 1.61 µM (inactive), the GI50 (SK-MEL-2) was 1.7 µM (inactive) and the GI50 (DMS-114) was 1.58 µM (inactive). The GI50 (SN12C) was 1.49 µM (inactive), the GI50 (M19-MEL) was 2.28 µM (inactive) and the GI50 (SNB-78) was 2.56 µM (inactive). The GI50 (DLD-1) was 1.59 µM (inactive), the GI50 (SF-268) was 2.78 µM (inactive) and the GI50 (A498) was 2.32 µM (inactive). The GI50 (OVCAR-8) was 2.04 µM (inactive), the GI50 (UO-31) was 3.35 µM (inactive) and the GI50 (UACC-257) was 2.09 µM (inactive). For the same compound, the GI50 (HCC 2998) was 1.85 µM (inactive), the GI50 (ACHN) was 2.78 µM (inactive) and the GI50 (A549) was 2.88 µM (inactive). For the same compound, the GI50 (CAKI-1) was 1.71 µM (inactive), the GI50 (SK-MEL-28) was 3.43 µM (inactive) and the GI50 (SNB-19) was 1.78 µM (inactive). The GI50 (OVCAR-4) was 3.1 µM (inactive), the GI50 (SK-OV-3) was 2.6 µM (inactive) and the GI50 (SW-620) was 1.76 µM (inactive). For the same compound, the GI50 (NCI-H226) was 3.52 µM (inactive), the GI50 (OVCAR-3) was 1.55 µM (inactive) and the GI50 (HT-29) was 1.95 µM (inactive). For the same compound, the GI50 (NCI-H460) was 2.11 µM (inactive), the GI50 (M14) was 1.82 µM (inactive) and the GI50 (KM-20L2) was 1.67 µM (inactive). The GI50 (IGROV-1) was 2.7 µM (inactive), the GI50 (MOLT-4) was 1.72 µM (inactive) and the GI50 (SNB-75) was 1.98 µM (inactive). For the same compound, the GI50 (HCT-116) was 2.37 µM (inactive), the GI50 (Malme-3M) was 3.1 µM (inactive) and the GI50 (UACC-62) was 1.65 µM (inactive). The GI50 (XF498) was 1.71 µM (inactive), the GI50 (SF-539) was 1.66 µM (inactive) and the GI50 (RXF 631) was 3.94 µM (inactive). The GI50 (SK-MEL-5) was 1.73 µM (inactive), the GI50 (NCI-H23) was 1.95 µM (inactive) and the GI50 (U-251) was 3.12 µM (inactive). The GI50 (COLO 205) was 1.6 µM (inactive), the GI50 (K562) was 1.18 µM (inactive) and the GI50 (KM12) was 1.88 µM (inactive). For the same compound, the GI50 (TK-10) was 2.26 µM (inactive), the GI50 (SF-295) was 3.22 µM (inactive) and the GI50 (HOP-62) was 3.78 µM (inactive). The GI50 (EKVX) was 1.74 µM (inactive), the GI50 (LXFL 529) was 1.75 µM (inactive) and the GI50 (DMS-273) was 1.98 µM (inactive). The GI50 (LOX IMVI) was 2.09 µM (inactive), the GI50 (RXF 393) was 1.81 µM (inactive) and the GI50 (NCI-H522) was 2.18 µM (inactive). The GI50 (RPMI-8226) was 1.38 µM (inactive).
With `C[C@H]1CC(=O)C2=CCCC3(SCCCS3)[C@@H]2[C@H]1CO` the GI50 (OVCAR-5) was > 100 µM (inactive), the GI50 (CCRF-CEM) was 26.9 µM (inactive) and the GI50 (786-0) was > 100 µM (inactive). The GI50 (SK-MEL-2) was > 100 µM (inactive), the GI50 (DMS-114) was > 100 µM (inactive) and the GI50 (SN12C) was > 100 µM (inactive). The GI50 (M19-MEL) was 78.5 µM (inactive), the GI50 (DLD-1) was > 100 µM (inactive) and the GI50 (SF-268) was > 100 µM (inactive). For the same compound, the GI50 (A498) was > 100 µM (inactive), the GI50 (OVCAR-8) was > 100 µM (inactive) and the GI50 (UO-31) was > 100 µM (inactive). For the same compound, the GI50 (UACC-257) was > 100 µM (inactive), the GI50 (HCC 2998) was > 100 µM (inactive) and the GI50 (ACHN) was > 100 µM (inactive). For the same compound, the GI50 (A549) was > 100 µM (inactive), the GI50 (HL-60) was 27.1 µM (inactive) and the GI50 (CAKI-1) was > 100 µM (inactive). For the same compound, the GI50 (SK-MEL-28) was > 100 µM (inactive), the GI50 (SNB-19) was > 100 µM (inactive) and the GI50 (OVCAR-4) was > 100 µM (inactive). The GI50 (SK-OV-3) was > 100 µM (inactive), the GI50 (SW-620) was > 100 µM (inactive) and the GI50 (NCI-H226) was > 100 µM (inactive). The GI50 (OVCAR-3) was > 100 µM (inactive), the GI50 (HT-29) was > 100 µM (inactive) and the GI50 (SR) was 54.3 µM (inactive). For the same compound, the GI50 (NCI-H460) was > 100 µM (inactive), the GI50 (M14) was > 100 µM (inactive) and the GI50 (IGROV-1) was > 100 µM (inactive). For the same compound, the GI50 (MOLT-4) was 44.9 µM (inactive), the GI50 (SNB-75) was > 100 µM (inactive) and the GI50 (HCT-116) was 89.5 µM (inactive). For the same compound, the GI50 (Malme-3M) was > 100 µM (inactive), the GI50 (UACC-62) was > 100 µM (inactive) and the GI50 (HOP-18) was > 100 µM (inactive). For the same compound, the GI50 (XF498) was > 100 µM (inactive), the GI50 (SF-539) was > 100 µM (inactive) and the GI50 (RXF 631) was > 100 µM (inactive). For the same compound, the GI50 (SK-MEL-5) was > 100 µM (inactive), the GI50 (NCI-H23) was > 100 µM (inactive) and the GI50 (U-251) was 91.4 µM (inactive). The GI50 (COLO 205) was > 100 µM (inactive), the GI50 (K562) was 47.1 µM (inactive) and the GI50 (KM12) was > 100 µM (inactive). The GI50 (TK-10) was > 100 µM (inactive), the GI50 (SF-295) was > 100 µM (inactive) and the GI50 (HOP-92) was > 100 µM (inactive). For the same compound, the GI50 (HOP-62) was > 100 µM (inactive), the GI50 (EKVX) was > 100 µM (inactive) and the GI50 (LXFL 529) was > 100 µM (inactive). For the same compound, the GI50 (DMS-273) was > 100 µM (inactive), the GI50 (LOX IMVI) was > 100 µM (inactive) and the GI50 (RXF 393) was > 100 µM (inactive). For the same compound, the GI50 (NCI-H522) was > 100 µM (inactive) and the GI50 (RPMI-8226) was 70.8 µM (inactive).
